The text below walks through data of patent publication US20190031618A1, “BENZIMIDAZOLE DERIVATIVES USEFUL AS CB-1 INVERSE AGONISTS” (Janssen Pharmaceutica NV, priority 2015, published 2019).

A word on the EC50: it is the concentration that produces a half-maximal response.

Assay [1] addresses Human CB2R (Cannabinoid receptor 2) (Homo sapiens, UniProt P34972). Put plainly: CB-2 in vitro cAMP (HTRF) assay. It is filed as cell-based. The settings on record: HEK cells, cAMP HTRF, 250 nM forskolin; mean where tested more than once; read-out: CB2 HEK_cAMP EC50. The text has this: (§1) CB1 and CB2 receptors are Gi-coupled GPCR. Activation of CB1 and CB2 receptors results in a decrease in cAMP production. An inverse agonist of the CB1 or CB2 receptor results in the opposite effect, an increase of cAMP production. The principle of this assay is based on HTRF® technology (Homogeneous Time-Resolved Fluorescence). The method is a competitive immunoassay between native cAMP produced by cells and the cAMP labeled with the fluorophore d2. The tracer binding is quantified by a Mab anti-cAMP labeled with Eu3+TBP-NHS Cryptate (supplied as part of the assay kit). The specific signal (i.e. energy transfer) is inversely proportional to the concentration of cAMP in the standard or sample.
Human CB1R (Cannabinoid receptor 1) was stably transfected in HEK-293 cells (DiscoveRx, cat: 93-0200C1). Human CB2R (Cannabinoid receptor 2) was stably transfected in HEK-293 cells (DiscoveRx, cat: 93-0201C1). Cell cultures were maintained in media: DMEM (Invitrogen Cat#12430-054) supplemented with 10% HI FBS (Invitrogen Cat#16140-071), 1% L-glutamine (Invitrogen Cat#25030-081), 0.2 mg/ml Hygromycin B (Invitrogen Cat#10687-010), 600 μg/mL G418 (Invitrogen Cat#10131-035), and 1× Penn/Strep (Invitrogen 15140-122). After cell expansion, aliquots were cryo-stored in media containing 5% DMSO (Pierce Cat#20684).
(§2) One day prior to experiments media was warmed to 37° C. and the cryo-stored cells were thawed in a 37° C. water bath. The cells were then added to media (10× volume) and the mixture was centrifuged at 1000 RPM for 5 min. The supernate was removed and the cells were re-suspended in media. A sample of the cell suspension was evaluated on a Cedex XS automated cell counter (Innovatis Systems) to determine viable cells/ml. Additional media was added to the cells to achieve a final cell density of 4E5 cells/mL. The cells were then plated into 384 well PDL white solid bottom plates (Greiner, Cat#781945) at 20 μL per well using a Multidrop (Thermo Scientific). Cells were removed from Row P (location of cAMP standards). Two columns of cells were plated into a clear bottom 384 well PDL coated plate (Greiner, Cat#781944) to view confluence the day of the assay. The cell plates were lidded and stored for 15 minutes in a hood, then transferred to an incubator (37° C., 5% CO2, 95% humidity) overnight.
DMSO was added to all wells of 384 well V bottom polystyrene plate (Greiner, Cat#781280) except to columns 1 and 13, rows O and P and wells M13-M23 and N13-N23. Test compounds (60 μL, 10 mM) were added to Column 1 and 13 (A1 through N1 and A13 through L13). Test compounds were serially diluted 1/3 by transferring and mixing 20 μl sample with 40 μL DMSO.
DMSO (40 μL) was added to wells of 384 well V bottom polystyrene plate: O2 through O11, M14 through M23, N14 through N23, and O14 through O23. AM630 (also known as [6-iodo-2-methyl-1-[2-(4-morpholinyl)ethyl]-1H-indol-3-yl](4-methoxyphenyl)-methanone, Cayman Chemical, Cat#10006974) (60 μL, 10 mM) was added to O1; and 1-(2,4-dichlorophenyl)-7-[(4-fluorophenyl)methylene]-4,5,6,7-tetrahydro-N-1-piperidinyl-1H-benzimidazole-3-carboxamide (60 μL, 10 mM) was added to N13. The control was serially diluted 1/3 by transferring and mixing 20 μl sample with 40 μL DMSO. This process resulted 11 doses per control, 10 mM to […].
Cells plated the day prior to the assay in clear bottom plates were viewed on an inverse microscope to ensure confluency in the range of 60-75%. […]
In general terms: Time-resolved FRET reads energy transfer from a long-lived donor to a nearby acceptor.

Assay [2] has as its target Human CB1R (Cannabinoid receptor 1) (Homo sapiens, UniProt P21554). The experiment in a line: CB-1 in vitro cAMP (HTRF) assay. It is filed as cell-based. The settings on record: HEK cells, cAMP HTRF, 250 nM forskolin; mean where tested more than once; read-out: CB1 HEK_cAMP EC50.
Description: as §1
Human CB1R (Cannabinoid receptor 1) was stably transfected in HEK-293 cells (DiscoveRx, cat: 93-0200C1). Human CB2R (Cannabinoid receptor 2) was stably transfected in HEK-293 cells (DiscoveRx, cat: 93-0201C1).
as §2, with “The cells were then plated into 384 well PDL white solid bottom plates (Greiner, Cat#781945) at 20 μL per well using a Multidrop (Thermo Scientific).” left out, “Two columns of cells were plated into a clear bottom 384 well PDL coated plate (Greiner, Cat#781944) to view confluence the day of the assay.” left out
Test compounds (60 μL, 10 mM) were added to Column 1 and 13 (A1 through N1 and A13 through L13). Test compounds were serially diluted 1/3 by transferring and mixing 20 μl sample with 40 μL DMSO.
DMSO (40 μL) was added to wells of 384 well V bottom polystyrene plate: O2 through O11, M14 through M23, N14 through N23, and O14 through O23. […] The control was serially diluted 1/3 by transferring and mixing 20 μl sample with 40 μL DMSO. This process resulted 11 doses per control, 10 mM to 0.5 μM.
Cells plated the day prior to the assay in clear bottom plates were viewed on an inverse microscope to ensure confluency in the range of 60-75%.
A FLEXDROP (Perkin Elmer) was cleaned with ethanol then water, and primed with Buffer 2. A 384 well V bottom polypropylene plate containing d2 labelled cAMP and a second 384 well V bottom polypropylene plate containing anti-cAMP was prepared (50 μl per well). Media as “dumped” from the cell plate and 30 μL Buffer 1 was added to each well using a Multidrop. The content of the cell plate was again “dumped” and 10 μL Buffer 2 was added to each well using a Flexdrop. […] The cell plate was mixed (Speed 6, Lab-Line Instruments Titer Plate Shaker) and centrifuged (1000 RPMs, 1 min). […] The cell plate was again mixed (speed 6) and centrifuged (1000 RPMs, 1 min). The cell plate was incubated for 30 minutes at room temperature (˜27° C.). The contents of row P were removed and the cAMP standard dilutions were added in duplicate to Row P (P1-12 and P13-24). After incubation, 6 μL d2 labelled cAMP and 6 μL of Anti-cAMP were added to all wells of the cell plate using a BioMek FX (Beckman Coulter). The cell plate was again mixed (speed 6) and centrifuged (1000 RPMs, 1 min) and was incubated for 60 minutes in the dark at room Temp (˜27° C.).
After this final incubation, the cell plate was read in HTRF mode (fluorescence at 665 nm and 620 nm) on an Envision plate Reader (Perkin Elmer). The Envision reader outputs a ratio of channel 1/channel 2 fluorescence×10,000 (Normalized signal (NS)). Amount of cAMP in nM was calculated for each well (based on NS) from a cAMP standard curve located on each plate (at P1-12 and P13-24). EC50 values were determined from a 4-point fit (Hill equation) of a single 11-point compound dosing. Hill slope was fixed at 1.0.

Sequence of Human CB2R (Cannabinoid receptor 2) (P34972 whole entry): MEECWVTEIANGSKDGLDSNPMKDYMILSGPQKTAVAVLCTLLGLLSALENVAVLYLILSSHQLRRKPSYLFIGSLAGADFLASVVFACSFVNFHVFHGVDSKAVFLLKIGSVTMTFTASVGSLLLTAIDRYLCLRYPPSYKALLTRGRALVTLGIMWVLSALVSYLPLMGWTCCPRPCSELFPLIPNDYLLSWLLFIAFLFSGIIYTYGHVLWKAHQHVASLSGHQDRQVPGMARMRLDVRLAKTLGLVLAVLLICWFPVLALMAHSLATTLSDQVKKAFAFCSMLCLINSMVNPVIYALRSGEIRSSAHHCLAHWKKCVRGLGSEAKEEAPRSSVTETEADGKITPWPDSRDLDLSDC
Sequence of Human CB1R (Cannabinoid receptor 1) (P21554 whole entry): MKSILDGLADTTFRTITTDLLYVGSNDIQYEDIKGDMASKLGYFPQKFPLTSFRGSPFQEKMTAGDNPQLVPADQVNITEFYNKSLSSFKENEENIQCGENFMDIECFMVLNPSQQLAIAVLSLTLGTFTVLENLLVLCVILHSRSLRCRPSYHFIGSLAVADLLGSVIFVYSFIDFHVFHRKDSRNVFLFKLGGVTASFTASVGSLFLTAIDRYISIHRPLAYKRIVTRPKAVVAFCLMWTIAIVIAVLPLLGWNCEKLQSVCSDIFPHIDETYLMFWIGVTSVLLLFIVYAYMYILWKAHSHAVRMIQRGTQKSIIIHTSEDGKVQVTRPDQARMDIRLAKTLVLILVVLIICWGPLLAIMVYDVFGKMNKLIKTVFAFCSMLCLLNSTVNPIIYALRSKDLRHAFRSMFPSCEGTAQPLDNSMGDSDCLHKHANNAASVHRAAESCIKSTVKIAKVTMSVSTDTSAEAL

Turning to `O=C(O)c1cccc(S(=O)(=O)N[C@H]2CC[C@H](n3c(C4CC4)nc4ccc(C(c5ccc(Cl)cc5)c5ccc(Cl)cc5)cc43)CC2)c1` [Example 22], the EC50 in assay [1] was found to be 1520 nM; in assay [2], 89 nM.
As to `O=C(O)c1cccc(OCCn2c(C3CC3)nc3ccc(C(c4ccc(Cl)cc4)c4ccc(Cl)cc4)cc32)c1` [Example 23], the values for the EC50 in assay [1] and in assay [2] were 1880 nM and 182 nM, respectively.
Taken in the same sequence, the figures for `O=C(O)c1cccc(-c2ccc(CCn3c(C4CC4)nc4ccc(C(c5ccc(Cl)cc5)c5ccc(Cl)cc5)cc43)cc2)c1` [Example 24] were 7300 nM and 1940 nM.
Taken in the same sequence, the figures for `O=C(O)c1ccc(-c2ccc(CCn3c(C4CC4)nc4ccc(C(c5ccc(Cl)cc5)c5ccc(Cl)cc5)cc43)cc2)cc1` [Example 25] were greater than 10000 nM and 1650 nM.
Taken in the same sequence, the figures for `COC(=O)c1cccc(OCCn2c(C3CC3)nc3ccc(C(c4ccc(Cl)cc4)c4ccc(Cl)cc4)cc32)c1` [Example 26] were 3310 nM and 103 nM.
Turning to `Clc1ccc(C(c2ccc(Cl)cc2)c2ccc3nc(C4CC4)n(CCc4ccc(Br)cc4)c3c2)cc1` [Example 27], the EC50 in assay [1] was greater than 10000 nM; in assay [2] it was 11 nM.
For `Oc1cccc(N[C@H]2CC[C@H](n3c(C4CC4)nc4ccc(C(c5ccc(Cl)cc5)c5ccc(Cl)cc5)cc43)CC2)c1` [Example 28] the same measures were greater than 10000 nM and 21.5 nM.
Taken in the same sequence, the figures for `O=C(O)c1ccc(N[C@H]2CC[C@H](n3c(C4CC4)nc4ccc(C(c5ccc(Cl)cc5)c5ccc(Cl)cc5)cc43)CC2)cc1` [Example 30] were 1620 nM and 40.2 nM.
For `O=C(O)c1cccc(N[C@H]2CC[C@H](n3c(C4CC4)nc4ccc(C(c5ccc(Cl)cc5)c5ccc(Cl)cc5)cc43)CC2)c1` [Example 31] the same measures were 3000 nM and 150 nM.
For the compound `O=C(O)c1ccc(N[C@H]2CC[C@@H](n3c(C4CC4)nc4ccc(C(c5ccc(Cl)cc5)c5ccc(Cl)cc5)cc43)CC2)cc1` [Example 32], the EC50 in assay [1] was determined as 2160 nM; in assay [2], 39.5 nM.
Take `COC(=O)c1ccc(OCCn2c(C3CC3)nc3ccc(C(c4ccc(Cl)cc4)c4ccc(Cl)cc4)cc32)nc1` [Example 34]: the EC50 stood at 6800 nM in assay [1] and 37.5 nM in assay [2].
Taken in the same sequence, the figures for `O=C(O)c1ccc(OCCn2c(C3CC3)nc3ccc(C(c4ccc(Cl)cc4)c4ccc(Cl)cc4)cc32)cc1` [Example 35] were 4360 nM and 3340 nM.
Taken in the same sequence, the figures for `COC(=O)c1ccc(OCCn2c(C3CC3)nc3ccc(C(c4ccc(Cl)cc4)c4ccc(Cl)cc4)cc32)cc1` [Example 36] were 869 nM and 85.4 nM.
For the compound `Oc1ccc(CCn2c(C3CC3)nc3ccc(C(c4ccc(Cl)cc4)c4ccc(Cl)cc4)cc32)cc1` [Example 37], the EC50 in assay [1] came to 7260 nM; in assay [2], 87.6 nM.
Taken in the same sequence, the figures for `O=C(O)c1ccc(CCn2c(C3CC3)nc3ccc(C(c4ccc(Cl)cc4)c4ccc(Cl)cc4)cc32)cc1` [Example 38] were 1700 nM and 4300 nM.
In the case of `O=C(O)c1cccc(NC2CCC(n3c(C4CC4)nc4ccc(C(c5ccc(Cl)cc5)c5ccc(Cl)cc5)cc43)CC2)c1` (stereo not drawn) [Example 40], the EC50 in assay [1] turned out to be 5120 nM; in assay [2] it was 104 nM.
As for `CC(C)(C)OC(=O)N1CCC(n2c(C3CC3)nc3ccc(C(O)(c4ccc(Cl)cc4)c4ccc(Cl)cc4)cc32)CC1` [Example 41], the results for the EC50 in assay [1] and in assay [2] were greater than 42000 nM and 30.6 nM, respectively.
Regarding `O=C(O)c1ccc(S(=O)(=O)N[C@H]2CC[C@@H](n3c(C4CC4)nc4ccc(C(c5ccc(Cl)cc5)c5ccc(Cl)cc5)cc43)CC2)cc1` [Example 42], the EC50 in assay [1] was 8700 nM; in assay [2], 90.8 nM.
For `O=C(O)c1cccc(S(=O)(=O)N[C@H]2CC[C@@H](n3c(C4CC4)nc4ccc(C(c5ccc(Cl)cc5)c5ccc(Cl)cc5)cc43)CC2)c1` [Example 43], the EC50 in assay [1] stood at 12100 nM; in assay [2], 113 nM.
On to `O=C(O)c1cccc(OCCN2CCC(n3c(C4CC4)nc4ccc(C(c5ccc(Cl)cc5)c5ccc(Cl)cc5)cc43)CC2)c1` [Example 44], for which the EC50 in assay [1] amounted to 2440 nM; in assay [2], 14.6 nM.
On to `O=S(=O)(CCN1CCNCC1)N1CCC(n2c(C3CC3)nc3ccc(C(c4ccc(Cl)cc4)c4ccc(Cl)cc4)cc32)CC1` [Example 45], for which the EC50 is greater than 42000 nM in assay [1] and 593 nM in assay [2].
Taken in the same sequence, the figures for `NCCS(=O)(=O)N1CCC(n2c(C3CC3)nc3ccc(C(c4ccc(Cl)cc4)c4ccc(Cl)cc4)cc32)CC1` [Example 46] were greater than 42000 nM and 450 nM.
Taken in the same sequence, the figures for `CCC(c1cccc(C(=O)O)c1)N1CCC(n2c(C3CC3)nc3ccc(C(c4ccc(Cl)cc4)c4ccc(Cl)cc4)cc32)CC1` (stereo not drawn) [Example 49] were 4400 nM and 8.5 nM.
Take `O=C(Nc1ccccc1)N1CCC(n2c(C3CC3)nc3ccc(C(c4ccc(Cl)cc4)c4ccc(Cl)cc4)cc32)CC1` [Example 50]: the EC50 in assay [1] is greater than 10000 nM; in assay [2] it was 48.1 nM.
